The source made the active and inactive calls.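 The calls were made as follows: active = growth-inhibition EC50 no more than tenfold above the top tested dose; inconclusive = flat fit between 30% and 70% inhibition, or unreliable fit; inactive = EC50 more than tenfold above the top tested dose.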
What follows are compounds tested on E. coli NEB5alpha growth, BacTiter-Glo luminescence, 4 h (assay: Escherichia coli growth inhibition, dose response, counter-screen for MEX-5/POS-1 RNA-binding inhibitor project, luminescence, NEB5alpha (AID 1959);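 also: pUC19-transformed ampicillin-resistant cells grown in LB with ampicillin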).

Row | SMILES | EC50
1 | CNC(=O)c1c(NC(=O)c2ccc(S(=O)(=O)N3CCCCC3C)cc2)sc2c1CCN(C)C2 (stereo not drawn) | > 11 µM (inactive)
2 | COc1cc(/C=N/Nc2nc(=O)[nH]nc2C)ccc1O | > 11 µM (inactive)
3 | COc1ccc(CCNC(=O)c2cc3c(=O)n4cccc(C)c4nc3n(CCCN3CCOCC3)c2=N)cc1 | > 11 µM (inactive)
4 | CCN(CC)c1ccc(N=Cc2c(O)n(Cc3ccccc3)c(=O)[nH]c2=O)cc1 | > 11 µM (inactive)
5 | CCOc1ccc(N2C(=O)/C(=C/c3ccc(C)o3)C(=O)NC2=S)cc1 | > 11 µM (inactive)
6 | COc1cccc(-n2c(O)c(C=Nc3c(C)n(C)n(-c4ccccc4)c3=O)c(=O)[nH]c2=O)c1 | > 11 µM (inactive)
7 | N#Cc1c(N)nc(SCc2ccccc2)c(C#N)c1-c1ccco1 | > 11 µM (inactive)
8 | CC(=O)c1ccc(NC(=O)CSc2nnc(-c3ccncc3)o2)cc1 | > 11 µM (inactive)
9 | Cc1c(N=Cc2c(O)n(Cc3ccco3)c(=O)[nH]c2=O)c(=O)n(-c2ccccc2)n1C | > 11 µM (inactive)
10 | CC1=CC(C)(C)N2C(=O)C3(C(C#N)=C(N)OC4=C3C(=O)CCC4)c3c(C)c(C)cc1c32 (stereo not drawn) | > 11 µM (inactive)
11 | CC(C)C(C(=O)O)N1C(=O)/C(=C/C=C/c2ccco2)SC1=S (stereo not drawn) | > 11 µM (inactive)
12 | CCCCC1=CC2=CC(=O)C(C)(OC(=O)CC)C(=O)C2=CO1 (stereo not drawn) | > 11 µM (inactive)
13 | S=C(NCc1ccncc1)Nc1ccc(Cl)cc1Cl | > 11 µM (inactive)
14 | COC(=O)CCC(=O)OC1(C)C(=O)C=C2C=C(C3CC3)OC=C2C1=O (stereo not drawn) | > 11 µM (inactive)
15 | Cc1cc2oc(=O)c(CC(=O)NCCCO)c(C)c2c2occ(C(C)(C)C)c12 | > 11 µM (inactive)
16 | COC/C=C/C1=CC2=CC(=O)C(C)(OC(=O)CCC(=O)OC)C(=O)C2=CO1 (stereo not drawn) | > 11 µM (inactive)
17 | Cc1cc(/C=C2\C(=O)NC(=O)N(Cc3ccco3)C2=O)c(C)n1-c1ccc(C(=O)O)cc1 | > 11 µM (inactive)
18 | CCN1C(=O)/C(=C/c2c(C)nn(C)c2C)SC1=S | > 11 µM (inactive)
19 | Cc1ccc(S(=O)(=O)c2cc3c(=O)n4ccccc4nc3n(CCc3ccccc3)c2=N)cc1 | > 11 µM (inactive)
20 | Cc1ccc(NC(=O)Cn2c(=O)c(C)nc3ccccc32)cc1 | > 11 µM (inactive)
21 | COc1ncnc2c1NC1=C(S2)C(=NCCC(=O)O)CC(C)(C)C1 | > 11 µM (inactive)
22 | COc1cccc(OCCCn2cc(/C=C3/C(=N)N4C=C(C)SC4=NC3=O)c3ccccc32)c1 | > 11 µM (inactive)
23 | Cc1cc(N=Cc2c(O)n(-c3ccc4c(c3)OCO4)c(=O)c3ccccc23)ccn1 | > 11 µM (inactive)
24 | Cc1n[nH]c(C)c1N1C(=O)c2cccc3c(N4CCCCCC4)ccc(c23)C1=O | > 11 µM (inactive)

Row | SMILES | EC50
25 | CCn1c(=N)c(S(=O)(=O)c2ccccc2)cc2c(=O)n3ccccc3nc21 | > 11 µM (inactive)
26 | O=C(/C=C/c1ccco1)NC(=S)Nc1cccc(C(=O)O)c1 | > 11 µM (inactive)
27 | CCn1c(=N)c(S(=O)(=O)c2ccc(F)cc2)cc2c(=O)n3ccccc3nc21 | > 11 µM (inactive)
28 | COc1ccc(C2C(C#N)=C(N)OC3=C2C(=O)CC(C)(C)C3)cc1 (stereo not drawn) | > 11 µM (inactive)
29 | COC(=O)c1ccc(-n2c(C)cc(C(=O)COC(=O)CC3Sc4ccccc4NC3=O)c2C)cc1 (stereo not drawn) | > 11 µM (inactive)
30 | COc1ccc(C2C=C(c3ccc(Br)s3)Nc3ncnn32)cc1OC (stereo not drawn) | > 11 µM (inactive)
31 | Cc1ccc(CNC(=O)/C(C#N)=C\c2ccc(N(C)C)cc2)cc1 | > 11 µM (inactive)
32 | O=C(Nc1cc(=O)[nH]c2ncnn12)c1ccc(Cl)cc1Cl | > 11 µM (inactive)
33 | O=C(Cc1ccccc1)NNC(=O)c1cnccn1 | > 11 µM (inactive)
34 | O=C(O)COc1ccc(/C=C/c2nc(-c3ccccc3O)n[nH]2)cc1 | > 11 µM (inactive)
35 | Cc1cccc(N2C(=O)/C(=C/c3ccc(N4CCN(C)CC4)o3)C(=O)NC2=S)c1C | > 11 µM (inactive)
36 | COC(=O)/C(C#N)=C/c1c(Oc2cc(C)cc(C)c2)nc2c(C)cccn2c1=O | > 11 µM (inactive)
37 | Cc1cc(/C=C2\C(=O)NC(=O)N(c3ccc(Br)cc3)C2=O)c(C)n1C | > 11 µM (inactive)
38 | Cc1c(Cl)cccc1N1C(=O)NC(=O)/C(=C\c2cc(C)n(-c3cccc(C(=O)O)c3C)c2C)C1=O | > 11 µM (inactive)
39 | Cc1cc(=O)n2[nH]c(=O)c(N=Nc3ccccc3)c2[nH]1 | > 11 µM (inactive)
40 | N#C/C(=C\N1CCN(Cc2ccc3c(c2)OCO3)CC1)c1nc2ccccc2s1 | > 11 µM (inactive)
41 | Cc1cc(/C=N/Nc2ccc([N+](=O)[O-])cn2)c(C)n1-c1cccc(C(=O)O)c1 | > 11 µM (inactive)
42 | N=c1c(S(=O)(=O)c2ccc(Cl)cc2)cc2c(=O)n3ccccc3nc2n1C1CCCCC1 | > 11 µM (inactive)
43 | COc1cc(/C=N/Nc2nc(=O)[nH]nc2C)cc([N+](=O)[O-])c1O | > 11 µM (inactive)
44 | COc1cccc(NC(=O)c2ccccc2Br)c1 | > 11 µM (inactive)
45 | Oc1ccc(/C=N/Nc2ccc(Cl)nn2)c(O)c1O | > 11 µM (inactive)
46 | Cc1nc2c3ccccc3nc(NNC(=O)CCC(=O)N3CCCC(C)C3)n2n1 (stereo not drawn) | > 11 µM (inactive)
47 | Cc1noc(/C=C/N(C)C)c1S(=O)(=O)N1CCC(C(=O)O)CC1 | > 11 µM (inactive)
48 | C=CCOc1ccc(C2OC34CCCCC3C(C#N)(C#N)C2(C#N)C(=N)O4)cc1 (stereo not drawn) | > 11 µM (inactive)

Row | SMILES | EC50
49 | CC(C)Cc1nn2c(N)c(/C=C3\C=Nc4ccccc43)c(=O)nc2s1 | > 11 µM (inactive)
50 | COC(=O)c1ccccc1-n1c(CCC(=O)O)ccc1-c1ccc(F)cc1 | > 11 µM (inactive)
51 | COc1ccc(C2OC34CCCCC3C(C#N)(C#N)C2(C#N)C(=N)O4)cc1 (stereo not drawn) | > 11 µM (inactive)
52 | Cc1cc(C=O)c(C)n1-c1ccc(Cl)c(C(=O)O)c1 | > 11 µM (inactive)
53 | Cc1ccc(C(=O)O)cc1-n1c(C)cc(C=O)c1C | > 11 µM (inactive)
54 | O=C(C1=C(O)C(=O)N(c2ncccn2)C1c1cccs1)c1ccco1 (stereo not drawn) | > 11 µM (inactive)
55 | N#CC(C#N)=Cc1ccc(NC(=O)c2ccc(Br)cc2)cc1 | > 11 µM (inactive)
56 | Cc1nnc(N2C(=O)C(O)=C(C(=O)c3ccco3)C2c2cccc3ccccc23)s1 (stereo not drawn) | > 11 µM (inactive)
57 | CCOC(=O)c1ccc(-c2ccc(C=O)o2)cc1 | > 11 µM (inactive)
58 | COc1ccc(C=C2C(=O)OC(C)(C)OC2=O)cc1OC | > 11 µM (inactive)
59 | CCOc1ccc(-n2c(O)c(C=Nc3ccc(N4CCOCC4)cc3)c(=O)[nH]c2=O)cc1 | > 11 µM (inactive)
60 | Cc1cccc(S(=O)(=O)C(C#N)c2nc3ccccc3nc2N2CCOCC2)c1 (stereo not drawn) | > 11 µM (inactive)
61 | CCOC(=O)c1c(/N=C/C2C(=O)NC(=S)NC2=O)sc(C)c1C | > 11 µM (inactive)
62 | COc1cc(OC)c2c(O)c3c(c(-c4c5c(c(O)c6c(OC)cc(OC)cc46)CO[C@@H](C)[C@H]5O)c2c1)[C@H](O)[C@H](C)OC3 | > 11 µM (inactive)
63 | COC(=O)CCCC1=CC2=CC(=O)C(C)(OC(=O)c3ccco3)C(=O)C2=CO1 (stereo not drawn) | > 11 µM (inactive)
64 | Cc1ccccc1N=Nc1c(O)n(C)c2ccccc12 | > 11 µM (inactive)
65 | N#Cc1c(N)n(-c2ccc(C(=O)O)cc2)c2nc3ccccc3nc12 | > 11 µM (inactive)
66 | Cc1cc(-c2ccccc2)nc(N/N=C/c2ccc(O)cc2O)n1 | > 11 µM (inactive)
67 | COc1ccc(Nc2nc3ccccc3nc2NS(=O)(=O)c2cccs2)cc1 | > 11 µM (inactive)
68 | O=C(O)c1ccccc1-c1ccc(C=C2C(=O)N(c3ccccc3)C(=S)N(c3ccccc3)C2=O)o1 | > 11 µM (inactive)
69 | Cc1cccc(NC2=Nc3ccccc3N3C2=Nc2c(c(C)nn2-c2ccccc2)C3c2ccc(O)c(O)c2)c1 (stereo not drawn) | > 11 µM (inactive)
70 | Cc1ccn2cc(-c3ccc(O)c(O)c3)nc2c1 | > 11 µM (inactive)
71 | COc1ccc(C2c3ccc(O)cc3Oc3ncn(Cc4ccco4)c(=N)c32)cc1OC (stereo not drawn) | > 11 µM (inactive)
72 | CCOc1ccccc1NC(=O)Nc1ccc(OC)nc1 | > 11 µM (inactive)

Row | SMILES | EC50
73 | COc1cc(/C=C2/C(=O)NN(c3cccc(C)c3)C2=O)cc([N+](=O)[O-])c1O | > 11 µM (inactive)
74 | O=C(NNC(=O)c1csc(-c2cccnc2)n1)c1ccccc1 | > 11 µM (inactive)
75 | CCCSc1nnc2nc3c(nn12)c1ccccc1n3C | > 11 µM (inactive)
76 | N#C/C(=C/c1cccn1-c1cccc(C(=O)O)c1)c1ccc(Cl)cc1 | > 11 µM (inactive)
77 | CCOc1cccc(=O)c2c(C)n(-c3ccc(C(=O)O)cc3)c(C)c12 | > 11 µM (inactive)
78 | Cc1cc(/C=c2/sc3nc4ccccc4n3c2=O)c(C)n1-c1ccccn1 | > 11 µM (inactive)
79 | O=C1c2cccc3cccc(c23)C(=O)N1/N=C/c1c(O)n(-c2ccccc2)c(=O)[nH]c1=O | > 11 µM (inactive)
80 | O=c1[nH][nH]c2cc(=O)n(-c3ccc(Cl)cc3)nc12 | > 11 µM (inactive)
81 | Cc1cc(C=C2C(=O)c3ccccc3C2=O)c(C)n1-c1ccc(Cl)cc1 | > 11 µM (inactive)
82 | COC(=O)c1ccccc1-n1cccc1C(=O)NP(=O)(N1CCOCC1)N1CCOCC1 | > 11 µM (inactive)
83 | Oc1ccc(C[C@H]2NCCc3cc(O)c(O)cc32)cc1O | > 11 µM (inactive)
84 | N#CC1=C(N)OC2=C(C(=O)CCC2)[C@]12C(=O)N(CC(N)=O)c1ccccc12 | > 11 µM (inactive)
85 | Cc1ccc(NC(=S)c2ccc3ccccc3n2)c(C)c1 | > 11 µM (inactive)
86 | Cc1ccc(S(=O)(=O)C(C#N)c2nc3ccccc3nc2N2CC(C)OC(C)C2)cc1C (stereo not drawn) | > 11 µM (inactive)
87 | Cc1ccccc1N1C(=O)NC(=O)/C(=C\c2cc(C)n(C)c2C)C1=O | > 11 µM (inactive)
88 | COc1ccc(N2C(=O)/C(=C/c3ccco3)C(=O)NC2=S)cc1 | > 11 µM (inactive)
89 | COc1ccc2c(c1)c1nc3ccccc3nc1n2CCCN1C(=O)c2ccccc2C1=O | > 11 µM (inactive)
90 | COc1ccc(Nc2nc3ccccc3nc2NS(=O)(=O)c2cccs2)c(OC)c1 | > 11 µM (inactive)
91 | Cn1cc(/C=N/n2cnc3scc(-c4ccc(Cl)cc4)c3c2=O)c2ccccc21 | > 11 µM (inactive)
92 | CC(=O)C1=C(c2ccccc2)N(C(C)=O)n2c(C)nnc2S1 | > 11 µM (inactive)
93 | COC(=O)[C@@H]1[C@H]2C[C@H]3c4[nH]c5ccccc5c4CCN3C[C@@H]2CC[C@@H]1O | > 11 µM (inactive)
